The record followed here is patent US20230057133A1, “COMPOUND FOR THE TREATMENT AND PREVENTION OF CENTRAL NERVOUS SYSTEM DISORDERS” (ABAXYS THERAPEUTICS, priority 2019, published 2023).

Type in all cases: in vivo, zebrafish
Assay [1] has as its system zebra fish larvae. As to the kind of experiment: Model of epileptic activity: pentetrazole-induced locomotor activity of zebra fish larvae. The protocol: (§1) Compound was tested in zebrafish paradigms reaction to environmental stimuli, epileptic activity and dopaminergic hyperactivity. Zebrafish used in present studies were raised in regular conditions of housing in tanks of appropriate size and circadian rhythm (12:12 photoperiod, light/darkness). The aqueous medium used for the maintenance and experimental conditions was Instant Ocean®. The water maintained between at 27° C. or 29° C., pH between 7.2-7.5 and a conductivity value between 480-520 μS. Zebrafish embryos were placed in sterile petri dishes before being transferred to plates after the hatching.
(§2) For experimental studies, larvae of up to 5 dpf were placed in flat bottom 96-well plates. At the treatment time, the medium was replaced by 150 μL fresh medium. Pentetrazole (PTZ) and/or Cmpd1 (treatment), or vehicle (control) were added (up to 210-240 μL) to the wells followed by video recording.
(§3) Locomotion of larvae was recorded using Noldus daniovisio system equipped with infrared light detection. Ethovision XT15 software controlled the temperature of plate (28° C.) and chamber light conditions. The experimental recording was done with a cycle of light period (20 min) followed by dark period ([…]). After recording data were analysed using Ethovision XT15 software package. The distance moved by larvae was calculated for each period of 2 min recording (FIGS. 1 to 6 and 10) or as accumulated value of distance at 2 min (initiation), at 4 min at 10 min and at 20 min (switch to darkness) or at 60 min (end of recording) (FIGS. 7 and 8).
(§4) All compounds were dissolved in medium or medium containing DMSO at indicated concentrations.

Assay [2] relates to zebra fish larvae. As to the kind of experiment: Locomotion of zebra fish larvae treated with compound alone, light period followed by dark period. To be noted: Cmpd1 100 μM alone versus vehicle; FIGS. 5 and 10. The protocol: as §1, §2
Locomotion of larvae was recorded using Noldus daniovisio system equipped with infrared light detection. […] After recording data were analysed using Ethovision XT15 software package. The distance moved by larvae was calculated for each period of 2 min recording (FIGS. 1 to 6 and 10) or as accumulated value of distance at 2 min (initiation), at 4 min at 10 min and at 20 min (switch to darkness) or at 60 min (end of recording) (FIGS. 7 and 8). […]

Assay [3] deals with zebra fish larvae. As to the kind of experiment: Model of hyperdopaminergic activity: apomorphine-induced locomotor activity of zebra fish larvae. The protocol: as §1, §2, §3, §4
The same methods as disclosed in Example 1 ware carried out for Example 2, except that the pentetrazole was replaced by apomorphine (APO).

For the compound `CCOC(=O)C1CCN(C(=O)[C@H](C)N(c2ccc(C)cc2)S(C)(=O)=O)CC1` [Cmpd1, ethyl 1-(N-(methylsulfonyl)-N-(p-tolyl)alanyl)piperidine-4-carboxylate], the “locomotion level compared with vehicle treated zebra fishes” value with zebra fish larvae [1] (Cmpd1 100 μM, FIG. 2 open circles and FIG. 7) is given as “stabilizes locomotion to levels close to normal locomotion”. For the same compound, the “locomotor activity induced by pentetrazole alone (distance moved)” value in the assay on zebra fish larvae [1] (co-treatment Cmpd1 100 μM + pentetrazole 10 mM, FIG. 2 and FIG. 7) is recorded as “decrease of the locomotor activity”. In addition, the “conclusion of the epileptic activity model” value in the assay on zebra fish larvae [1] (pentetrazole model, Cmpd1 100 μM) is given as “anti-epileptic activity”. For the same compound, in the assay with zebra fish larvae [2], the “locomotion activity and peak due to change to dark condition” value is listed as “maintains a low level of locomotion activity suppressing also the peak due to change to dark condition”. In addition, the “locomotion level compared with vehicle treated zebra fish” value with zebra fish larvae [3] (FIG. 5 and FIGS. 9 and 10) was “stabilizes locomotion to levels close to normal locomotion”. The “conclusion of the hyperdopaminergic activity model” value with zebra fish larvae [3] (apomorphine model) is on record as “stabilizer of the hyperdopaminergic activity”. Further, the “locomotor activity induced by apomorphine alone (distance moved)” value is listed as “decrease of the locomotor activity” in the assay on zebra fish larvae [3] (co-treatment Cmpd1 100 μM + apomorphine 55 μM, FIG. 9) and “decrease of the locomotor activity” in the assay on zebra fish larvae [3] (co-treatment Cmpd1 100 μM + apomorphine 75 μM, FIG. 4). Also, in the assay with zebra fish larvae [3] (first period of the assay, up to ~20 min, FIG. 9), the “apomorphine-induced locomotion activity, time course” value is “reduces apomorphine-induced locomotion activity strongly”.

In the case of `CN1CCc2cccc3c2[C@H]1Cc1ccc(O)c(O)c1-3` [apomorphine, reference compound], the “locomotor activity (distance moved) versus vehicle” value in the assay on zebra fish larvae [3] (apomorphine alone, 75 μM (FIG. 3) or 55 μM (FIG. 8), light conditions) is on record as “clear increase of locomotor activity in light conditions”.

Take `C1CCc2nnnn2CC1` [pentetrazole, reference compound]: the “locomotor activity (distance moved) versus vehicle” value in the assay with zebra fish larvae [1] (pentetrazole 10 mM alone, larvae up to 5 dpf, light 20 min then dark 45 min, FIGS. 1, 2, 6) was “clear increase of locomotor activity in both light and dark conditions”.
